The values that follow are results of earlier work, collected in patent US10022309B2, “Composition, comprising hydrofluoric acid, for inhibiting dental erosion” ([…], priority 2004, dated 2018).

For series [1] the following is noted: 24 h treatment (1.2% NaF or Duraphat varnish); then cola-drink pH 2.6 for 4 min.
For series [2] the following is noted: pre-treatment with 1% neutral NaF or 4% TiF4; 50 mM citric acid with calcium and phosphate, pH 3, 30 min; without treatment 4.5 um.
For series [3] the following is noted: aqueous solution.

SMILES strings stand for the structures.

Turning to `[F-].[Na+]` [NaF, sodium fluoride], the “hardness of enamel compared with untreated control” value in series [1] is listed as “improved”. In addition, in series [2], the mean lesion depth is 3.5 um.
Take `[F][Ti]([F])([F])[F]` [TiF4, titanium tetrafluoride]: the mean lesion depth in series [2] is on record as 2.7 um.
`F` [hydrofluoric acid]: the pKa in series [3] is given as 3.45.
